For assay [1], the system named is colorectal carcinoma Caco-2. The assay is described as follows: WST-1 cell proliferation assay, Caco-2. The class given is cell-based. The settings on record: Homo sapiens; Caco-2, WST-1, 72 h; read-out: Anticancer Activity IC50 Caco-2. The procedure:
(§1) The antiproliferative activity of all 20 new 10-substituted 1,2,3-triazole derivatives of dipyridothiazines was tested in vitro against cancer cell lines: glioblastoma SNB-19, colorectal carcinoma Caco-2, lung cancer A549, and breast cancer MDA-MB231 using the WST-1 assay. Normal human fibroblasts NHDF were used as a control.
(§2) All dipyridothiazines with 1,2,3-triazole substituents (1–4)b–f were evaluated for their anticancer activity using four cultured cell lines: SNB-19 (human glioblastoma, DSMZ—German Collection of Microorganisms and Cell Cultures, Braunschweig, Germany), Caco-2 (human colon adenocarcinoma, DSMZ—German Collection of Microorganisms and Cell Cultures, Braunschweig, Germany), A549 (human lung carcinoma, ATCC, Manassas, VA, USA) and MDA-MB231 (human breast adenocarcinoma, ATCC, Manassas, VA, USA), and NHDF (human dermal fibroblast cell line, ATCC, Manassas, VA, USA. The cultured cells were kept at 37 °C and 5% CO2. The cells were seeded (1 × 10^4 cells/well/100 µL DMEM supplemented with 10% FCS and streptomycin and penicillin) using 96-well plates (Corning). The cells were counted in a hemocytometer (Burker’s chamber) using a phase contrast Olympus IX50 microscope equipped with Sony SSC-DC58 AP camera and Olympus DP10 digital camera.
(§3) Antiproliferative effect of the obtained compounds on the cancer cells was determined using the cell proliferation reagent WST-1 assay (Roche Diagnostics, Mannheim, Germany). This assay is based on the viable cell’s ability to cleave the bright red-colored tetrazolium salt (2-(4-iodophenyl)-3-(4-nitrophenyl)-5-(2,4-disulfophenyl)-2H-tetrazolium, monosodium salt) to dark red soluble formazan by cellular enzymes. An increase in the amount of formazan dye formed correlates to the number of metabolically active cells in the culture. The formazan dye produced by metabolically active cells is quantified by a scanning ELISA reader by measuring the absorbance of the dye solution at appropriate wavelengths. The examined cells were exposed to the tested compounds for 72 h at various concentrations between 0.1 μg/mL and 100 μg/mL (prepared initially at concentration of 1 mg/mL in DMSO). The cells were incubated with WST-1 (10 μL) for 1 h and the absorbance of the samples against a background control was measured at 450 nm using a microplate reader with a reference wavelength at 600 nm. The results are expressed as means of at least two independent experiments performed in triplicate.
Background: Formazan colour is commonly taken as a measure of viable cells.

Another assay deals with lung cancer A549. The assay is described as follows: WST-1 cell proliferation assay, A549. The class given is cell-based, human. The settings on record: A549, WST-1, 72 h, read-out: Anticancer Activity IC50 A549. The protocol:
as §1, with “Encouraged by our previous promising results in the field of antiproliferative activity of dipyridothiazines as well as by the good anticancer activity of the 1,2,3-triazoles, we decided to combine the biological potentials of dipyridothiazines and triazole moieties, hoping to obtain compounds with better activity. The” for “The”
as §2, §3

For another assay, the system named is glioblastoma SNB-19. The experiment in a line: WST-1 cell proliferation assay, SNB-19. The class given is cell-based, human. The settings on record: SNB-19, WST-1, 72 h, read-out: Anticancer Activity IC50 SNB-19. The protocol: as §1, with “Encouraged by our previous promising results in the field of antiproliferative activity of dipyridothiazines as well as by the good anticancer activity of the 1,2,3-triazoles, we decided to combine the biological potentials of dipyridothiazines and triazole moieties, hoping to obtain compounds with better activity. The” for “The”
as §2, §3

Assay [2] deals with normal human fibroblasts NHDF. The assay is described as follows: WST-1 cytotoxicity assay, normal fibroblasts NHDF. The class given is cell-based. The settings on record: normal human fibroblasts NHDF, WST-1, 72 h. The procedure:
as §1, with “Encouraged by our previous promising results in the field of antiproliferative activity of dipyridothiazines as well as by the good anticancer activity of the 1,2,3-triazoles, we decided to combine the biological potentials of dipyridothiazines and triazole moieties, hoping to obtain compounds with better activity. The” for “The”
as §2, §3

The next assay has as its system breast cancer MDA-MB231. The experiment in a line: WST-1 cell proliferation assay, MDA-MB231. In kind it is cell-based, human. The settings on record: MDA-MB231, WST-1, 72 h, read-out: Anticancer Activity IC50 MDA-MB231. The protocol: as §1, with “Encouraged by our previous promising results in the field of antiproliferative activity of dipyridothiazines as well as by the good anticancer activity of the 1,2,3-triazoles, we decided to combine the biological potentials of dipyridothiazines and triazole moieties, hoping to obtain compounds with better activity. The” for “The”
as §2, §3

In assay [3] the test system is SNB-19, Caco-2, A549 and MDA-MB231 cancer cell lines. The experiment in a line: WST-1 assay, summary over the cancer cell line panel. The class given is cell-based, human. The settings on record: for IC50: Homo sapiens. The procedure: as §1, §2, §3

Read-outs that look alike come from different tables or passages of the source.

The record followed here is publication PMC6930555, “Design, Synthesis, and Structural Characterization of Novel Diazaphenothiazines with 1,2,3-Triazole Substituents as Promising Antiproliferative Agents” (Molecules, 2019).

As usually defined, the IC50 is the point on the concentration scale where inhibition reaches its midpoint.

As for `c1ccc(Cn2cc(CN3c4cccnc4Sc4cccnc43)nn2)cc1` [1b, 10-[(1-Benzyl-1H-1,2,3-triazol-4-yl)-methyl]-1,6-diazaphenothiazine], the IC50 in assay [1] was 19.9 ± 2.71 µM; in the assay on lung cancer A549 (Homo sapiens), over 100 µM; with glioblastoma SNB-19 (Homo sapiens), 69.2 µM; in assay [2], over 100 µM; in the assay with breast cancer MDA-MB231 (Homo sapiens, MDA-MB-231), 13.7 µM.
Take `Fc1ccc(Cn2cc(CN3c4cccnc4Sc4cccnc43)nn2)cc1` [1c, 10-[(1-(4-Fluorobenzyl)-1H-1,2,3-triazol-4-yl)methyl]-1,6-diazaphenothiazine]: the IC50 is 8.1 µM in assay [1]; 29.1 µM with lung cancer A549 (Homo sapiens); 5.72 to 7.82 µM in assay [3] (span over SNB-19 and MDA-MB231, read-out: IC50 in relation to SNB-19 and MDA-MB231 cell lines); 5.72 µM in the assay on glioblastoma SNB-19 (Homo sapiens); over 100 µM in assay [2]; 7.82 µM in the assay on breast cancer MDA-MB231 (Homo sapiens, MDA-MB-231).
As for `N#Cc1ccc(Cn2cc(CN3c4cccnc4Sc4cccnc43)nn2)cc1` [1e, 10-[(1-(4-Cyanobenzyl)-1H-1,2,3-triazol-4-yl)methyl]-1,6-diazaphenothiazine], the half-maximal inhibitory concentration (IC50) was 79.7 µM in assay [1]; 1.79 µM with lung cancer A549 (Homo sapiens); 9.65 µM in the assay on glioblastoma SNB-19 (Homo sapiens); over 100 µM in assay [2]; 25.8 µM in the assay with breast cancer MDA-MB231 (Homo sapiens, MDA-MB-231).
Taken in the same sequence, the figures for `c1ccc(SCn2cc(CN3c4cccnc4Sc4cccnc43)nn2)cc1` [1f, 10-[(1-Phenylthiomethyl-1H-1,2,3-triazolo-4-ylo)methyl]-1,6-diazaphenothiazine] were over 100 µM, over 100 µM, over 100 µM, over 100 µM and 68.7 µM.
As to `c1ccc(Cn2cc(CN3c4cnccc4Sc4cccnc43)nn2)cc1` [2b, 10-[(1-Benzyl-1H-1,2,3-triazol-4-yl)-methyl]-1,8-diazaphenothiazine], the IC50 in assay [1] was over 100 µM; in the assay on lung cancer A549 (Homo sapiens) it was 77.4 µM; with glioblastoma SNB-19 (Homo sapiens) it was 41.9 µM; in assay [2] it was over 100 µM; with breast cancer MDA-MB231 (Homo sapiens, MDA-MB-231), 56.3 µM.
For `Fc1ccc(Cn2cc(CN3c4cnccc4Sc4cccnc43)nn2)cc1` [2c, 10-[(1-(4-Fluorobenzyl)-1H-1,2,3-triazol-4-yl)methyl]-1,8-diazaphenothiazine], the concentration for half-maximal inhibition (IC50) in assay [1] was 43.6 µM; with lung cancer A549 (Homo sapiens) it was 60.2 µM; in the assay with glioblastoma SNB-19 (Homo sapiens) it was 55.2 µM; in assay [2], over 100 µM; in the assay on breast cancer MDA-MB231 (Homo sapiens, MDA-MB-231) it was 9.21 µM.
Take `Clc1ccc(Cn2cc(CN3c4cnccc4Sc4cccnc43)nn2)cc1` [2d, 10-[(1-(4-Chlorobenzyl)-1H-1,2,3-triazol-4-yl)methyl]-1,8-diazaphenothiazine]: the half-maximal inhibitory concentration (IC50) in assay [1] turned out to be 11.4 µM; in the assay with lung cancer A549 (Homo sapiens), 1.82 µM; in the assay with glioblastoma SNB-19 (Homo sapiens), 59.9 µM; in assay [2], 43 µM; in the assay on breast cancer MDA-MB231 (Homo sapiens, MDA-MB-231), 4.71 µM.
Regarding `N#Cc1ccc(Cn2cc(CN3c4cnccc4Sc4cccnc43)nn2)cc1` [2e, 10-[(1-(4-Cyanobenzyl)-1H-1,2,3-triazol-4-yl)methyl]-1,8-diazaphenothiazine], the IC50 is 34.4 µM in assay [1]; 63.8 µM in the assay with lung cancer A549 (Homo sapiens); 10.6 µM with glioblastoma SNB-19 (Homo sapiens); over 100 µM in assay [2]; 12 µM in the assay on breast cancer MDA-MB231 (Homo sapiens, MDA-MB-231).
For `c1ccc(SCn2cc(CN3c4cnccc4Sc4cccnc43)nn2)cc1` [2f, 10-[(1-Phenylthiomethyl-1H-1,2,3-triazolo-4-ylo)methyl]-1,8-diazaphenothiazine] the same measures were 32.5 µM, 46.8 µM, 56.3 µM, over 100 µM and 12 µM.
Turning to `c1ccc(Cn2cc(CN3c4ccncc4Sc4ccncc43)nn2)cc1` [3b, 10-[(1-Benzyl-1H-1,2,3-triazol-4-yl)-methyl]-2,7-diazaphenothiazine], the IC50 was 0.26 µM in assay [1]; 0.26 µM in the assay on lung cancer A549 (Homo sapiens); 0.26 to 2.07 µM in assay [3] (span over SNB-19, Caco-2, A549, MDA-MB231, read-out: IC50 across all investigated cancer cell lines); 2.04 µM in the assay with glioblastoma SNB-19 (Homo sapiens); 22.7 µM in assay [2]; 0.77 µM in the assay with breast cancer MDA-MB231 (Homo sapiens, MDA-MB-231).
For the molecule `Fc1ccc(Cn2cc(CN3c4ccncc4Sc4ccncc43)nn2)cc1` [3c, 10-[(1-(4-Fluorobenzyl)-1H-1,2,3-triazol-4-yl)methyl]-2,7-diazaphenothiazine], the IC50 in assay [1] was found to be 29.9 µM; in the assay with lung cancer A549 (Homo sapiens) it was 27.2 µM; in the assay with glioblastoma SNB-19 (Homo sapiens) it was 57.9 µM; in assay [2], 70.6 µM; in the assay with breast cancer MDA-MB231 (Homo sapiens, MDA-MB-231) it was 25.7 µM.
On to `Clc1ccc(Cn2cc(CN3c4ccncc4Sc4ccncc43)nn2)cc1` [3d, 10-[(1-(4-Chlorobenzyl)-1H-1,2,3-triazol-4-yl)methyl]-2,7-diazaphenothiazine], for which the concentration for half-maximal inhibition (IC50) in assay [1] is 33.1 µM; in the assay on lung cancer A549 (Homo sapiens) it was 17.9 µM; in the assay on glioblastoma SNB-19 (Homo sapiens), 31.3 µM; in assay [2], over 100 µM; with breast cancer MDA-MB231 (Homo sapiens, MDA-MB-231) it was 4.26 µM.
Taken in the same sequence, the figures for `N#Cc1ccc(Cn2cc(CN3c4ccncc4Sc4ccncc43)nn2)cc1` [3e, 10-[(1-(4-Cyanobenzyl)-1H-1,2,3-triazol-4-yl)methyl]-2,7-diazaphenothiazine] were 10 µM, 30.1 µM, 26.8 µM, 49.5 µM and 3.5 µM.
For `c1ccc(SCn2cc(CN3c4ccncc4Sc4ccncc43)nn2)cc1` [3f, 10-[(1-Phenylthiomethyl-1H-1,2,3-triazolo-4-ylo)methyl]-2,7-diazaphenothiazine], the IC50 in assay [1] came to 14.5 µM; with lung cancer A549 (Homo sapiens), 0.65 µM; with glioblastoma SNB-19 (Homo sapiens), 32.6 µM; in assay [2], 52.9 µM; in the assay with breast cancer MDA-MB231 (Homo sapiens, MDA-MB-231) it was 0.64 µM. For the same molecule, the “selectivity among cancer cell lines (in words)” value in assay [3] (four cancer cell lines) was “acted selectively towards A549 and MDA-MB231 cell lines”.
For the molecule `c1ccc(Cn2cc(CN3c4ccncc4Sc4ncccc43)nn2)cc1` [4b, 10-[(1-Benzyl-1H-1,2,3-triazol-4-yl)-methyl]-3,6-diazaphenothiazine], the IC50 in assay [1] is 57.9 µM; in the assay on lung cancer A549 (Homo sapiens) it was 60.6 µM; in the assay on glioblastoma SNB-19 (Homo sapiens), 20.8 µM; in assay [2], over 100 µM; in the assay on breast cancer MDA-MB231 (Homo sapiens, MDA-MB-231), 7.87 µM.
For `Clc1ccc(Cn2cc(CN3c4ccncc4Sc4ncccc43)nn2)cc1` [4d, 10-[(1-(4-Chlorobenzyl)-1H-1,2,3-triazol-4-yl)methyl]-3,6-diazaphenothiazine] the same measures were 42.1 µM, 54 µM, 14.9 µM, over 100 µM and 13.4 µM.
Taken in the same sequence, the figures for `N#Cc1ccc(Cn2cc(CN3c4ccncc4Sc4ncccc43)nn2)cc1` [4e, 10-[(1-(4-Cyanobenzyl)-1H-1,2,3-triazol-4-yl)methyl]-3,6-diazaphenothiazine] were 74.3 µM, 42.7 µM, 53.6 µM, over 100 µM and 38.8 µM.
Taken in the same sequence, the figures for `c1ccc(SCn2cc(CN3c4ccncc4Sc4ncccc43)nn2)cc1` [4f, 10-[(1-Phenylthiomethyl-1H-1,2,3-triazolo-4-ylo)methyl]-3,6-diazaphenothiazine] were 67.5 µM, over 100 µM, 44.8 µM, over 100 µM and 44.3 µM.
On to `N.N.[Cl][Pt][Cl]` [Cisplatin, reference compound], for which the IC50 in the assay with lung cancer A549 came to 0.6 µM; in the assay with glioblastoma SNB-19 it was 3.73 µM; in assay [2] it was 63.9 µM; in the assay on breast cancer MDA-MB231 it was 3.13 µM.
